Results as given in the NIST ThermoML archive (doi:10.1021/je200790q).
Numbers after ± are expanded uncertainties.

How the values were obtained:
[1] = 101.33 kPa, Liquid; for mass density: Vibrating tube method
[2] = refractive index (Na D-line) (dimensionless); details: 101.33 kPa, Liquid, Standard Abbe refractometry
[3] = molar heat capacity at constant pressure; details: 298.15 K; 101.33 kPa; Liquid; Drop calorimetry

CCn1cc[n+](C)c1.N#C[S-] [1-ethyl-3-methylimidazolium thiocyanate]
Details	mass density, [1] [kg/m3]	refractive index, [2]	viscosity, [1] [mPa·s]
278.15 K	1129.7 ± 2	–	54.57 ± 0.55
283.15 K	1126.5 ± 2	–	43.51 ± 0.57
288.15 K	1123.3 ± 2	–	35.36 ± 0.45
293.15 K	1120.1 ± 2	–	29.21 ± 0.36
298.15 K	1117 ± 2	–	24.5 ± 0.29
303.15 K	1113.9 ± 2	–	20.79 ± 0.24
308.15 K	1110.8 ± 2	–	17.86 ± 0.21
313.15 K	1107.8 ± 2	–	15.49 ± 0.18
318.15 K	1104.8 ± 2	–	13.56 ± 0.15
323.15 K	1101.8 ± 2	–	11.97 ± 0.14
328.15 K	1098.8 ± 2	–	10.64 ± 0.12
332.55 K	–	1.53909 ± 0.00054	–
333.15 K	1095.9 ± 2	–	9.528 ± 0.11
334.52 K	–	1.5385 ± 0.00053	–
336.48 K	–	1.53794 ± 0.00053	–
338.15 K	1093 ± 2	–	8.582 ± 0.096
338.44 K	–	1.53739 ± 0.00053	–
340.41 K	–	1.53682 ± 0.00052	–
342.37 K	–	1.53636 ± 0.00051	–
343.15 K	1090.1 ± 2	–	7.773 ± 0.087
348.15 K	1087.2 ± 2	–	7.076 ± 0.08
353.15 K	1084.3 ± 2	–	6.472 ± 0.073
358.15 K	1081.5 ± 2	–	5.945 ± 0.068
363.15 K	1078.7 ± 2	–	5.485 ± 0.063

Details	molar heat capacity at constant pressure [J/K/mol]
[3]	281.45 ± 8.4

CCn1cc[n+](C)c1.Cc1ccc(S(=O)(=O)[O-])cc1 [1-ethyl-3-methylimidazolium 4-methylbenzenesulfonate]
Details	mass density, [1] [kg/m3]	refractive index, [2]	viscosity, [1] [mPa·s]
303.15 K	1223.4 ± 2	–	1417.4 ± 170
308.15 K	1220 ± 2	–	842.45 ± 85
313.15 K	1216.6 ± 2	–	531.73 ± 45
318.15 K	1213.2 ± 2	–	351.97 ± 25
322.73 K	–	1.53844 ± 0.00054	–
323.15 K	1210 ± 2	–	242.85 ± 14
325.68 K	–	1.53757 ± 0.00053	–
327.64 K	–	1.53703 ± 0.00052	–
328.15 K	1206.8 ± 2	–	173.69 ± 8
329.61 K	–	1.53649 ± 0.00052	–
332.55 K	–	1.5357 ± 0.00053	–
333.15 K	1203.7 ± 2	–	128.18 ± 4.5
334.52 K	–	1.53509 ± 0.00053	–
336.48 K	–	1.53461 ± 0.00051	–
338.15 K	1200.6 ± 2	–	97.21 ± 2.6
338.44 K	–	1.53409 ± 0.00052	–
340.41 K	–	1.53356 ± 0.00052	–
342.37 K	–	1.53304 ± 0.00052	–
343.15 K	1197.6 ± 2	–	75.51 ± 1.4
348.15 K	1194.5 ± 2	–	59.9 ± 0.73
353.15 K	1191.5 ± 2	–	48.42 ± 0.61
358.15 K	1188.5 ± 2	–	39.81 ± 0.49
363.15 K	1185.5 ± 2	–	33.22 ± 0.42
